PubChem BioAssay AID788 (SRMLSC, 2007)
The source made the active and inactive calls. No rule for the calls is given here.

Key:
[1] = test system: S. cerevisiae wild-type background strain growth inhibition; experiment: growth inhibition of vps1Δ apl2Δ yeast, dose response, post-Golgi transport modulator project, S. cerevisiae, background strain comparison (AID 788); settings: S. cerevisiae vps1Δ apl2Δ growth inhibition, dose response; measured here: wild-type background strain growth
[2] = test system: S. cerevisiae vps1Δ apl2Δ growth inhibition, dose response; experiment: as above

SMILES	IC50 [1] [µM]	IC50 [2]
O=C(NCc1ccc2c(c1)OCO2)c1ccc(CS(=O)(=O)c2cccc(C(F)(F)F)c2)o1	> 10	> 10 µM (inactive)
N#CC1=C2SCC(O)(c3ccccc3)N2C(=O)CC1c1ccccc1 (configuration not stated)	> 10	> 10 µM (inactive)
O=c1c2c3c(sc2ncn1/N=C/c1ccc([N+](=O)[O-])o1)CCCC3	1.59	1.8 µM (inactive)
CCOC(=O)c1c(NC(=O)CN2CCCCC2)sc2c1CCC(C=O)=C2Cl	> 10	> 10 µM (inactive)
O=C(OCn1ncc(Cl)c(Cl)c1=O)c1ccccc1Cl	16.6	15.5 µM
CCOC(=O)c1cc2c(ccn2C)n1CC(=O)N1CCN(c2ccccc2OC)CC1	> 10	> 10 µM (inactive)
Cc1ccc(Cl)c(OCCCCN(C)Cc2ccccc2)c1	> 10	3.13 µM
CCn1c(-c2c[nH]c3ccccc23)n[nH]c1=S	> 10	> 10 µM (inactive)
Cc1cc(Cl)cc(C)c1OCCCCN1CCOCC1	> 10	> 10 µM (inactive)
O=C(NCC(c1cccnc1)N1CCN(c2ccccc2)CC1)C1CCCCC1 (configuration not stated)	> 10	> 10 µM (inactive)
COc1ccc(-c2cc(N)n(S(=O)(=O)c3c(F)c(F)c(F)c(F)c3F)n2)cc1OC	1.08	2.5 µM (inactive)
Cc1nn(-c2ccccn2)c(C)c1Oc1ccccc1O	> 10	> 10 µM (inactive)
O=C1NC2(Nc3ccccc31)C(=O)Nc1ccccc12 (configuration not stated)	> 10	> 10 µM (inactive)
N#Cc1cn(-c2ccccc2)nc1-c1cc2ccccc2oc1=O	> 10	> 10 µM (inactive)
Clc1ccc(-c2n[nH]c3c2CCC3)cc1Cl	1.81	2.65 µM (inactive)
COc1ccc(N2CCN(c3oc(-c4ccco4)nc3C#N)CC2)cc1	> 10	> 10 µM (inactive)
O=C(C1CCN(S(=O)(=O)c2cccs2)CC1)N1CCCCCC1	> 10	> 10 µM (inactive)
O=C(CC(=O)c1cc(Cl)ccc1O)c1ccccc1	12.7	9.8 µM
O=C(CCl)c1ccc(Cc2ncc(C(F)(F)F)cc2Cl)s1	8.68	16.2 µM (inactive)
CCN(CC)CCn1nc(C)nc1-c1ccccc1O	> 10	> 10 µM (inactive)
CC(C)Oc1ccc(/C(O)=C2/C(=O)C(=O)N(CCN(C)C)C2c2ccco2)cc1 (configuration not stated)	> 10	> 10 µM (inactive)

SMILES	IC50 [1] [µM]	IC50 [2]
O=C(NCc1ccc2c(c1)OCO2)C1CCCN1C(=O)Nc1ccccc1 (configuration not stated)	> 10	> 10 µM (inactive)
CC1CN(CCCCOc2ccc(C(C)C)cc2)CC(C)O1 (configuration not stated)	> 10	0.703 µM
Cc1ccc(C(=O)c2c(NC(=O)c3ccncc3)sc3c2CCCC3)cc1	> 10	16.9 µM
Cc1cc(=O)oc2c(CN3CCCCC3)c(O)c(Cl)cc12	> 10	> 10 µM (inactive)
O=C(NCCc1ccccc1)C1CCN(S(=O)(=O)N2CCCC2)CC1	> 10	> 10 µM (inactive)
CCCCCOc1ccc(Cl)cc1CN1CCOCC1	> 10	20.6 µM
Cn1c2ccc(Cl)cc2c2nc3ccccc3nc21	> 10	> 10 µM (inactive)
CC(=O)c1ccc(N2CCN(C(=O)c3ccc(Br)cc3)CC2)c(F)c1	6.58	0.628 µM
CC(C)Cc1[nH]c(=O)c(C#N)c2c1CCC2	> 10	> 10 µM (inactive)
CN1CCN(CCCNC(=O)Cn2nc(-c3ccccc3)ccc2=O)CC1	> 10	> 10 µM (inactive)
Clc1cc(Br)ccc1OCCOCCN1CCOCC1	> 10	20.3 µM
COCCNc1cc(C)nc2c3c(C)cc(C)nc3nn12	> 10	> 10 µM (inactive)
CCN(CC)c1ccc(-c2nc3cnccc3n2C)cc1	> 10	> 10 µM (inactive)
CCOC(=O)c1cccnc1SCc1cc(=O)n2ccccc2n1	> 10	> 10 µM (inactive)
COc1ccc(C(=O)Nc2ccc(Cl)cc2C(=O)N2CCCC(C)C2)cc1 (configuration not stated)	> 10	> 10 µM (inactive)
Cn1c(=O)c2nc(NCc3ccccc3)cnc2n(C)c1=O	> 10	> 10 µM (inactive)
Cc1ccc(S(=O)(=O)N2CCN(C3CCN(Cc4ccccc4)CC3)CC2)cc1	> 10	24.5 µM
Cc1cccc(-c2c3c(=O)n(C)c(=O)n(C)c3cn2C2CCCCC2)c1	> 10	> 10 µM (inactive)
O=C(Cn1nnc(-c2ccc(S(=O)(=O)N3CCCC3)cc2)n1)NCC1CCCO1 (configuration not stated)	> 10	> 10 µM (inactive)
CCCCC(c1nnnn1Cc1ccco1)N1CCN(c2nc3ccccc3s2)CC1 (configuration not stated)	3.9	19.7 µM (inactive)
